How the values were obtained:
[1] = molecular target: ligand binding domain of human FXR (Homo sapiens (Human), UniProt Q96RI1); experiment: FXR ligand binding assay (LanthaScreen FRET); settings: for FXR pEC50 / % Efficacy: FXR ligand binding assay; for FXR pEC50: -log EC50; for Emax: read-out: % Efficacy; for % Efficacy: extent of activation relative to GW4064;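 as to all read-outs here: TR-FRET coactivator recruitment: ligand-induced binding of fluorescein-labelled SRC2-2 peptide to GST-tagged FXR LBD detected via Tb anti-GST antibody, serial compound dilutions, 3-parameter logistic fit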
[2] = molecular target: human Farnesoid X receptor ligand-binding domain/Gal4 DNA binding domain chimera (Homo sapiens (Human), UniProt Q96RI1); experiment: Cell-based FXR beta-lactamase reporter assay (FXR-UAS-bla HEK 293T cells); settings: for Emax: HEK-293T, read-out: % Efficacy; for EC50 / FXR pEC50 / % Efficacy: cellular FXR beta-lactamase reporter assay; for EC50 / FXR pEC50: -log EC50; for EC50: read-out: FXR pEC50 (converted); for % Efficacy: extent of activation relative to GW4064
Description: FXR activation was measured using a cell line and procedure obtained from Life Technologies (Cat #K1691). FXR-UAS-bla HEK 293T cells contain a human Farnesoid X receptor ligand-binding domain/Gal4 DNA binding domain chimera stably integrated into the CellSensor® UAS-bla HEK 293T cell line. The CellSensor® UAS-bla HEK 293T contains a beta-lactamase reporter gene under control of a UAS response element stably integrated into HEK 293T cells. Activation of FXR by bound ligands results in transcriptional activation of the beta-lactamase reporter gene, which is detected via assay of beta-lactamase activity. Cells are harvested and diluted into assay medium containing phenol red-free DMEM supplemented with 2% Charcoal-stripped FBS, pyruvate, non-essential amino acids. Cells are then transferred to a 384 well assay plate. Test compounds are dissolved in DMSO and a 3-fold serial dilution series is generated, then further diluted into assay medium. […] A FRET-based […] is loaded into cells as its acetomethoxy ester. Intracellular esterases liberate free CCF4, a cephalosporin core linking 7-hydroxycoumarin to fluorescein. In the presence of beta-lactamase activity produced in the presence of FXR agonists, cleavage of CCF4 spatially separates the two dyes and disrupts FRET, so that exciting the coumarin at 409 nm now produces a blue fluorescence signal at 447 nm. The change in FRET signal is plotted against the test compound concentration and fit to a 3-parameter logistical equation.

Sequence of ligand binding domain of human FXR (Q96RI1 262-486): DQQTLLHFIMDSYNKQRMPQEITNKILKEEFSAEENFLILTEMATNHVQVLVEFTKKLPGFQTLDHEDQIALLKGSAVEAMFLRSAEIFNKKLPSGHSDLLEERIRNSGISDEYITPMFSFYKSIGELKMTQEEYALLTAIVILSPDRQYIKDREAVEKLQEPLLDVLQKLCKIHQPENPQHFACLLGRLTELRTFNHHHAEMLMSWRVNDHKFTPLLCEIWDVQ
Sequence of human Farnesoid X receptor ligand-binding domain/Gal4 DNA binding domain chimera (Q96RI1 262-486, stated change not applied): as the sequence (Q96RI1 262-486) above

| FXR pEC50 [1] | % Efficacy [1] [%] | FXR pEC50 [2] | % Efficacy [2] [%] | Structure (SMILES) | Emax [1] [%] | Emax [2] [%] | EC50 [2] [nM] |
| --- | --- | --- | --- | --- | --- | --- | --- |
| 7.9 | 64 | 7.5 | 98 | O=C(O)c1cc(F)c2nc(N3[C@@H]4CC[C@H]3C[C@@H](OC(=O)c3c(-c5c(Cl)cccc5Cl)noc3C3CCC3)C4)sc2c1 [Compound I-24, 2-[(1R,3R,5S)-3-[5-cyclobutyl-3-(2,6-dichlorophenyl)-1,2-oxazole-4-carbonyloxy]-8-azabicyclo[3.2.1]octan-8-yl]-4-fluoro-1,3-benzothiazole-6-carboxylic Acid] |  |  |  |
| >4.4 | 22 | >4.5 |  | COC12CCC(c3noc(C4CC4)c3C(=O)O[C@@H]3C[C@H]4CC[C@@H](C3)N4c3nc4c(OC(F)(F)F)cc(C(=O)O)cc4s3)(CC1)CC2 [Compound I-58, 2-[(1R,3S,5S)-3-(5-cyclopropyl-3-{4-methoxybicyclo[2.2.2]octan-1-yl}-1,2-oxazole-4-carbonyloxy)-8-azabicyclo[3.2.1]octan-8-yl]-4-(trifluoromethoxy)-1,3-benzothiazole-6-carboxylic Acid] |  |  |  |
|  |  |  |  | Cc1cc(C(=O)O)cc2sc(N3[C@@H]4CC[C@H]3C[C@@H](OC(=O)c3c(-c5c(Cl)cccc5Cl)noc3C3CC3)C4)nc12 [Compound I-11, 2-[(1R,3R,5S)-3-[5-Cyclopropyl-3-(2,6-dichlorophenyl)-1,2-oxazole-4-carbonyloxy]-8-azabicyclo[3.2.1]octan-8-yl]-4-methyl-1,3-benzothiazole-6-carboxylic Acid] | 110 | 121 | 2.51 |
|  |  |  |  | O=C(O)c1cc(OC(F)(F)F)c2nc(N3[C@@H]4CC[C@H]3C[C@@H](OC(=O)c3c(-c5c(Cl)cccc5Cl)noc3C3CC3)C4)sc2c1 [Compound I-9, 2-[(1R,3R,5S)-3-[5-cyclopropyl-3-(2,6-dichlorophenyl)-1,2-oxazole-4-carbonyloxy]-8-azabicyclo[3.2.1]octan-8-yl]-4-(trifluoromethoxy)-1,3-benzothiazole-6-carboxylic Acid] | 136 | 119 | 3.16 |
|  |  |  |  | Cc1cc(C(=O)O)cc2sc(N3[C@@H]4CC[C@H]3C[C@@H](OC(=O)c3c(-c5c(Cl)cccc5Cl)noc3C3(F)CC3)C4)nc12 [Compound I-59, 2-[(1R,3R,5S)-3-[3-(2,6-dichlorophenyl)-5-(1-fluorocyclopropyl)-1,2-oxazole-4-carbonyloxy]-8-azabicyclo[3.2.1]octan-8-yl]-4-methyl-1,3-benzothiazole-6-carboxylic Acid] | 95 | 105 | 39.8 |
| 7.4 |  | 7.5 |  | CC1(c2onc(-c3c(Cl)cccc3Cl)c2C(=O)OC2C[C@H]3CC[C@@H](C2)N3c2nc3c(F)cc(C(=O)O)cc3s2)CC1 (single isomer, unassigned) [Compound I-26] |  |  |  |
| 7.2 |  | 7.6 |  | CC(C)(C)c1onc(-c2c(Cl)cccc2Cl)c1C(=O)OC1C[C@H]2CC[C@@H](C1)N2c1nc2c(F)cc(C(=O)O)cc2s1 (single isomer, unassigned) [Compound I-25] |  |  |  |
|  |  |  |  | O=C(O)c1ccc(N2[C@@H]3CC[C@H]2C[C@@H](OC(=O)c2c(-c4c(Cl)cccc4Cl)noc2C2CC2)C3)c(F)c1 [Compound I-35, 4-[(1R,3R,5S)-3-[5-Cyclopropyl-3-(2,6-dichlorophenyl)-1,2-oxazole-4-carbonyloxy]-8-azabicyclo[3.2.1]octan-8-yl]-3-fluorobenzoic Acid] | 92 | 116 | 31.6 |
|  |  |  |  | O=C(O)c1ncc(N2[C@@H]3CC[C@H]2C[C@@H](OC(=O)c2c(-c4c(Cl)cccc4Cl)noc2C2CC2)C3)cn1 [Compound I-54, 5-[(1R,3R,5S)-3-[5-Cyclopropyl-3-(2,6-dichlorophenyl)-1,2-oxazole-4-carbonyloxy]-8-azabicyclo[3.2.1]octan-8-yl]pyrimidine-2-carboxylic Acid] | 46 | 115 | > 20000 |
|  |  |  |  | CS(=O)(=O)NC(=O)c1ccc(N2[C@@H]3CC[C@H]2C[C@@H](OC(=O)c2c(-c4c(Cl)cccc4Cl)noc2C2CC2)C3)c(F)c1 [Compound I-51, (1R,3R,5S)-8-[2-fluoro-4-(methanesulfonylcarbamoyl)phenyl]-8-azabicyclo[3.2.1]octan-3-yl 5-cyclopropyl-3-(2,6-dichlorophenyl)-1,2-oxazole-4-carboxylate] | 139 | 105 | 5.01 |
| 7.4 | 34 | 6.4 | 86 | O=C(Cc1c(-c2c(Cl)cccc2Cl)noc1C1CC1)O[C@H]1C[C@H]2CC[C@@H](C1)N2c1nc2c(F)cc(C(=O)O)cc2s1 [Compound I-32, 2-[(1R,3R,5S)-3-({2-[5-cyclopropyl-3-(2,6-dichlorophenyl)-1,2-oxazol-4-yl]acetyl}oxy)-8-azabicyclo[3.2.1]octan-8-yl]-4-fluoro-1,3-benzothiazole-6-carboxylic Acid] |  |  |  |
|  |  |  |  | Cn1cc(C(=O)O)c2ccc(N3[C@@H]4CC[C@H]3C[C@@H](OC(=O)c3c(-c5c(Cl)cccc5Cl)noc3C3CC3)C4)cc21 [Compound I-28, 6-[(1R,3R,5S)-3-[5-cyclopropyl-3-(2,6-dichlorophenyl)-1,2-oxazole-4-carbonyloxy]-8-azabicyclo[3.2.1]octan-8-yl]-1-methyl-1H-indole-3-carboxylic Acid] | 94 | 117 | 25.1 |
|  |  |  |  | O=C(O)c1ccc(N2[C@@H]3CC[C@H]2C[C@@H](OC(=O)c2c(-c4c(Cl)cccc4Cl)noc2C2CC2)C3)cc1 [Compound I-34, 4-[(1R,3R,5S)-3-[5-Cyclopropyl-3-(2,6-dichlorophenyl)-1,2-oxazole-4-carbonyloxy]-8-azabicyclo[3.2.1]octan-8-yl]benzoic Acid] | 79 | 107 | 20 |

| Structure (SMILES) | FXR pEC50 [1] | % Efficacy [1] [%] | FXR pEC50 [2] | % Efficacy [2] [%] | Emax [1] [%] | Emax [2] [%] | EC50 [2] [nM] |
| --- | --- | --- | --- | --- | --- | --- | --- |
| CCc1cc(C(=O)O)cc2sc(N3[C@@H]4CC[C@H]3C[C@@H](OC(=O)c3c(-c5c(Cl)cccc5Cl)noc3C3CC3)C4)nc12 [Compound I-60, 2-[(1R,3R,5S)-3-[5-cyclopropyl-3-(2,6-dichlorophenyl)-1,2-oxazole-4-carbonyloxy]-8-azabicyclo[3.2.1]octan-8-yl]-4-ethyl-1,3-benzothiazole-6-carboxylic Acid] | 7 |  |  |  | 119 | 104 | 6.31 |
| O=C(OCCN(CCO)CCO)c1cc(F)c2nc(N3[C@@H]4CC[C@H]3C[C@@H](OC(=O)c3c(-c5c(Cl)cccc5Cl)noc3C3CC3)C4)sc2c1 [Compound I-63, 2-[bis(2-hydroxyethyl)amino]ethyl 2-[(1R,3R,5S)-3-[5-cyclopropyl-3-(2,6-dichlorophenyl)-1,2-oxazole-4-carbonyloxy]-8-azabicyclo[3.2.1]octan-8-yl]-4-fluoro-1,3-benzothiazole-6-carboxylate] | >6.5 |  |  |  |  | 112 | 10000 |
| O=C(O)c1ccc(N2[C@@H]3CC[C@H]2C[C@@H](OC(=O)c2c(-c4c(Cl)cccc4Cl)noc2C2CC2)C3)c(Cl)c1 [Compound I-36, 3-chloro-4-[(1R,3R,5S)-3-[5-cyclopropyl-3-(2,6-dichlorophenyl)-1,2-oxazole-4-carbonyloxy]-8-azabicyclo[3.2.1]octan-8-yl]benzoic acid] | 7.3 |  |  |  | 106 | 99 | 158 |

Reference: patent publication US11091482B2, “Isoxazolyl-carbonyloxy azabicyclo[3.2.1]octanyl compounds as FXR activators” (ARDELYX, INC., priority 2016, dated 2021)
